# “Also recorded” adds a separate entry of the source.
# Columns and labels:
# Type in all cases: in vivo, mouse
# [1] = test system: BALB/C mice, lethal TBI and allogeneic transplantation; test: Cage conditions experiment in allogeneic transplant (co-housed, separate, separate plus antibiotics); settings: caged separately plus antibiotics D-2 to D+14; listed as GLP-2
# Source text: BALB/C mice underwent lethal TBI and allogeneic transplantation were assigned to 3 cage conditions to perturb their microbial composition: 1) vehicle and GLP-2 treated animals housed together, 2) treatment groups housed separately or 3) treatment groups housed separately and provided with neomycin and polymyxin-b in their drinking water from D-2 to D+14 post-transplant.
# We then assessed the role of microbial communities in the protective effect of GLP-2 by conducting an allogeneic transplant with 3 caging conditions; 1) vehicle and GLP-2 treated mice caged together, 2) caged separately, or 3) caged separately plus oral antibiotics.
# [2] = test system: BALB/c syngeneic transplant recipients after high-dose lethal radiation; test: Syngeneic transplant after high-dose lethal radiation, different elsiglutide treatment schedules; settings: for apoptotic bodies within the crypts (TUNEL stain): D4 after radiation
# Experimental: This experiment was carried out to determine the effect of daily elsiglutide administration (800 nmol/kg) on weight recovery and bowel weight in response to high dose radiotherapy using different treatment schedules. Syngeneic transplant was performed to rescue the animals from early death due to hematopoietic failure to be able to examine the mice at several time points. […] Treatment with elsiglutide increased small bowel mass after irradiation and syngeneic transplant. The longer the treatment the more pronounced the effect.
# TUNEL stain was then performed to assess apoptosis of intestinal epithelial cells on D4 after radiation. We observed a small number of apoptotic bodies within the crypts of all mice at D4 post irradiation and transplantation (FIG. 4).
# [3] = test system: major MHC mismatched allogeneic transplant mice; test: Mechanistic study in major MHC-mismatched allogeneic transplant (flow cytometry/histology of organs, serum cytokines); settings: for proportion of Th1 and CD8+ T-cells expressing T-bet (intraepithelial, small intestine): 800 nmol/kg daily subcutaneous; for engraftment of hematopoietic stem cells / donor cells in the spleen: post-transplant elsiglutide vs vehicle, D7
# Source text: BALB/C mice underwent lethal TBI. (850 cGy Cs137) and transplantation with 5×10^6 T-cell depleted bone marrow cells and 1×10^6 splenic T-cells from B6 donors (major MHC-mismatch model).
# To further explore the mechanism behind the treatment effect observed in Example 4, we used the same experimental design as Example 4. […]
# [4] = test system: BALB/C mice, syngeneic transplant; test: Innate immune cells of the lamina propria after syngeneic transplant; settings: for recovery of mature (P4) lamina propria macrophages: D+7, vs vehicle
# Source text: To assess the impact of GLP-2 on macrophage maturation in the absence of inflammatory GVHD, BALB/C mice were transplanted with T-cell depleted bone marrow from BALB/C donors and given daily S.C. injections of GLP-2 as mentioned above. […] P1-P4 macrophages were gated as CD45+CD19^−CD3-Ly6G^− and CD11b^+ or CD11c^+. Subsets of the “monocyte-waterfall” were gated as: P1: CD64^−/low Ly6C^+MHC II^− CX3CR1^−/low; P2: CD64^low/+Ly6C^+ MHC II^+ CX3CR1^−/low; P3: CD64^+ Ly6C^−MHC II^+ CX3CR1^−/low; P4: CD64^+Ly6C^−MHC II^+ CX3CR1^+. N=4 per treatment group.
# Daily subcutaneous injection of GLP-2 increases the relative abundance of lamina propria ILCs in a process that appears to target type-3 ILCs (ILC3s). ILC3s are important immunomodulators of the lamina propria and intestinal stem-cell (ISC) niche via their production of IL-22, playing a role in ISC maintenance. […] ILCs were gated as CD45^+ CD19^− CD3^− Ly6G^− CD11b^− CD11c^− CD127^+, with subsets being assigned based on Tbet (ILC1), GATA-3 (ILC2) and RORgt (ILC3) expression.
# [5] = test system: healthy BALB/c mice; test: Escalating elsiglutide doses in healthy mice (no irradiation or transplant)
# Experimental: In this experiment elsiglutide at escalating doses (200-800 nmol/kg/d) was injected to healthy mice without irradiation or chemotherapy for 10 days.
# In this experiment we also performed Ki67 stains to document the proliferation of crypt cells in response to elsiglutide (FIG. 7). In healthy mice treated with vehicle Ki67 immunoreactivity was predominantly confined to the crypts where the stem cells reside.
# [6] = test system: major MHC-mismatched GVHD model, BALB/c mice; test: GVHD prevention after allogeneic HSCT with lower T-cell dose (0.5×10^6 splenic T cells)
# Source text: (§1) To determine the effect of elsiglutide treatment on graft-versus-host disease in MHC-mismatched (allogeneic) murine hematopoietic stem-cell transplantation and identify the optimal dosing schedule, in this experiment BALB/c mice were lethally-irradiated and transplanted with bone marrow (5×10^6 cells) from B6 mice plus 2×10^6 splenic T-cells and treated with 800 nmol/kg/d elsiglutide at 4 different treatment schedules (syngeneic transplant and allogeneic transplant with vehicle were used as controls).
# In a subsequent experiment, we used the same design as Example 3 but with T-cell depleted (TCD) bone marrow (BM) cells (5×10^6 cells) and a lower T-cell dose (0.5×10^6 splenic T cells) to allow examination of survival differences in a major MHC-mismatched GVHD model (aggressive GVHD model). As treatment effect was similar in this experiment for groups 3-4 and 5-6, these groups were combined into an “elsiglutide pre-transplant” group and an “elsiglutide post-transplant” group for presentation. In addition, animals originally designated to end treatment on D4 resumed treatment on D9 and continued until D30 or SAC. This time, the administration of elsiglutide beginning on D1 post-transplantation rescued 100% of mice from lethal GVHD along with improvement in GVHD scores and weight. […] Control mice (allogeneic transplant with vehicle control) had 100% mortality as expected and syngeneic control mice had 100% survival as expected (FIG. 10). This further supports the hypothesis that the timing of administration of the drug (post- vs. pre-radiation conditioning) is critical.
# [7] = test system: graft-versus-host disease in lethally-irradiated BALB/c mice transplanted from B6 mice; test: GVHD prevention after major MHC-mismatched allogeneic HSCT (2×10^6 splenic T-cells); settings: 800 nmol/kg/d
# Source text: as §1
# [8] = test system: intestinal microbiota; test: Intestinal microbiota by 16S rRNA sequencing of stool after lethal TBI and syngeneic transplantation
# Experimental: Mice undergoing lethal TBI were treated with daily S.C. injections with Elsiglutide (GLP-2) and their stool collected for 16s rRNA sequencing on D+0 (baseline), D+14 and D+28 post-transplant.
# To assess potential mechanisms for the differences in macrophage and T-cell phenotype, we examined the impact of GLP-2 on the intestinal microbiota. A syngeneic BALB/cJ model (similar to Example 1) was used to explore the effects of GLP-2 independent of GVHD. Stool samples from D+0, D+14, and D+28 were subjected to 16S rRNA sequencing. Vehicle-treated mice had distinct […] clusters at all time-points, showing a transplant effect on the microbiota (FIG. 28A). […] These taxa have been associated with anti-inflammatory properties and A. muciniphila abundance is linked to epithelial mucin production, which is increased by GLP-2.
# [9] = D+21 post-transplant, listed as Elsiglutide
# [10] = post-transplant elsiglutide, allogeneic transplant
substance,measurement,setting,value
elsiglutide,effect of oral antibiotics (neomycin and polymyxin-b) on the survival benefit of treatment,[1],dampened the beneficial effect; also recorded: reduced the efficacy
same,weight recovery after high dose radiotherapy,"[2]; 800 nmol/kg daily, several treatment schedules",without a clear effect
same,weight recovery after radiation,"[2]; 800 nmol/kg daily, treatment start on D-3",slightly worse than other schedules
same,small bowel mass after irradiation and syngeneic transplant,"[2]; 800 nmol/kg daily, longer treatment more pronounced",increased
same,apoptotic bodies within the crypts (TUNEL stain),"[2]; pre-transplant treated animals (D-7), vs vehicle",increased abundance of apoptotic bodies
same,apoptotic bodies within the crypts (TUNEL stain),[2]; treatment D-7 to D-3 then resumed on D1,very few apoptotic bodies
same,apoptotic bodies within the crypts (TUNEL stain),[2]; treatment beginning D1 post-transplant,almost no apoptotic bodies
same,"villi length and crypt depth (histology, distal small bowel)","[2]; after radiation, longer courses most pronounced",enhanced
same,"proportion of Th1 and CD8+ T-cells expressing T-bet (intraepithelial, small intestine)",[3],lower proportion
same,"proportion of Th1 and CD8+ T-cells expressing T-bet (intraepithelial, small intestine)",[3]; listed as Elsiglutide,reduced
same,interferon gamma in the serum,"[3]; D+21 after transplant, vs vehicle",lower levels
same,co-stimulatory molecules and SIRPα on lamina propria macrophages,[3]; D+21 post-transplant,reduced expression of co-stimulatory molecules and increased SIRPα
same,"lamina propria macrophages with tolerogenic/mature phenotype (higher CX3CR1, SIRP-alpha; lower CD80, CD86, CD206)",[3]; D+21 post-transplant,increase
same,Ly6C^high MHC-II^low immature macrophages,[3]; [9],decrease; also recorded: significant reduction
same,"lamina propria macrophages with tolerogenic/mature phenotype (higher CX3CR1, SIRP-alpha; lower CD80, CD86, CD206)",[3]; [9],increased prevalence
same,recovery of innate lymphoid cell (ILC) subtypes in lamina propria,"[3]; allogeneic setting, D+14 post-transplant",did not enhance recovery of any ILC subtype
same,T-cell activation,[3]; day 7 after transplant,reduced
same,engraftment of hematopoietic stem cells / donor cells in the spleen,[3],did not impair
same,engraftment of hematopoietic stem cells / donor cells in the spleen,[3]; listed as elsigltide,comparable engraftment
same,body weight loss,[3]; [10],absence of weight loss
same,small bowel mass and length,[3]; [10],increase
same,"lung inflammation, macroscopic assessment (1×)",[3]; vs allogeneic transplant mice with vehicle,fewer areas of inflammation and healthier appearing lung tissue
same,CD44 expression on gut T-cells,[3]; vs vehicle,higher
same,expression of adhesion molecules on gut lamina propria T-cells (CD103 on CD4 T-cells),[3]; vs vehicle,decreased; also recorded: lower
same,lung infiltrates and alveolar wall thickening (20×),[3]; vs vehicle,decreased infiltration and less alveolar wall thickening
same,CD3+ T-cell infiltration in colon and small bowel (immunohistochemistry),[3]; vs vehicle treated mice,decreased T-cell infiltration with more focal and less diffuse pattern of infiltration and fewer intraepithelial T-cells
same,"T-EMRA cells in CD4 and CD8 T-cells, IEL and LPL",[3]; vs vehicle-treated mice,fewer
same,alveolar diameter and alveolar wall thickness,[3]; vs vehicle-treated mice,decreased inflammation and alveolar damage
same,inflammation in the liver portal triads,"[3]; vs vehicle-treated mice, 20× magnification",decreased inflammation
same,ILC3,[4],significant increase
same,recovery of mature (P4) lamina propria macrophages,[4],improved recovery
same,recovery of mature (P4) lamina propria macrophages,[4]; listed as GLP-2,increased shift
same,recovery / relative abundance of lamina propria ILCs,[4]; D+14,improved
same,recovery / relative abundance of lamina propria ILCs,"[4]; D+14, listed as GLP-2",increases
same,"Ki67 staining, difference between doses",[5]; 200-800 nmol/kg/d,no obvious difference
same,total body weight over baseline,"[5]; 200-800 nmol/kg/d for 10 days, unirradiated",enhanced; also recorded: dose-dependent weight increase
same,weight of small and large bowel,"[5]; 200-800 nmol/kg/d, by day 10",enhanced; also recorded: dose-dependent increase
same,Ki67 proliferation staining of crypt cells,[5]; vs vehicle-treated healthy mice,extended further out of the crypts into the villi
same,GVHD scores and weight,[6]; elsiglutide beginning on D1 post-transplantation,improvement
same,mice rescued from lethal GVHD,"[6]; elsiglutide beginning on D1 post-transplantation, through day 35",100%
same,mice surviving long term,"[6]; post-transplant elsiglutide group, after discontinuation of treatment (day 30)",50%
same,GVHD scores and weight in surviving mice,[6]; pre-transplant elsiglutide,still had an effect
same,mice rescued from death,"[6]; pre-transplant elsiglutide, through day 35",40%
same,small bowel weight and length,"[7]; 4 treatment schedules, p<0.0001, not dependent on schedule",increase
same,GVHD outcome,"[7]; 2×10^6 T-cell dose, all mice except 1 from −D3-D4 group, euthanized by D8",developed severe GvHD by D6
same,abundance of Bacteroidales S24-7 family,[8]; D+14 and D+28,significantly enriched
same,abundance of Akkermansia muciniphila,"[8]; D+14 and D+28, listed as GLP-2",significantly enriched; also recorded: increased
same,β-diversity of stool microbiota by D+28,[8]; continual treatment,shifts in β-diversity
same,"β-diversity clusters of stool microbiota, D+0 vs D+14","[8]; daily S.C. injections, listed as GLP-2",near-complete cluster overlap; also recorded: overlap between D+0 and D+14 samples

# Reference: patent publication US20230364196A1, “METHODS FOR TREATING GRAFT-VERSUS-HOST DISEASE USING GLP-2 AGONISTS AND ANALOGUES THEREOF” (THE TRUSTEES OF COLUMBIA UNIVERSITY IN THE CITY OF NEW YORK, priority 2021, published 2023)
